According to US5631257A, “Benzoxazole derivatives” (Meiji Seika Kaisha, Ltd., priority 1993, dated 1997):
Like-named read-outs stand apart in the source and are kept apart here.

Key:
[1] = system: 5-HT3 receptor; assay: 5-HT3 receptor antagonism (inhibition of 5-HT-induced bradycardia in anesthetized mice); type: in vivo; conditions: 30 minutes before 5-HT 0.25 mg/kg i.v.
Experimental: In accordance with the procedure of Saxena et al. (Arch. Int. Pharmacodyn.,277, 235-252, 1985), each compound was dissolved in distilled water for injection to give different concentration and was administered intraperitoneally to mice which had been anesthetized with pentobarbital (3 animals per group), and ratio of inhibition of bradycardia induced by 5-HT administration (0.25 mg/kg, i.v.) was examined 30 minutes thereafter.

[2] = molecular target: T1, 5-HT3 receptor (Mus musculus, UniProt P23979); assay: 5-HT3 receptor binding affinity (inhibition of [^3 H]-GR65630 binding); conditions: membrane fraction from rat N1E-115 cells
T1 construct: membrane fraction prepared from rat N1E-115 cells; endogenous in cells; host or cells: N1E-115 cells, membrane fraction
T1 sequence (P23979 24-483 isoform P23979-2 limits assumed): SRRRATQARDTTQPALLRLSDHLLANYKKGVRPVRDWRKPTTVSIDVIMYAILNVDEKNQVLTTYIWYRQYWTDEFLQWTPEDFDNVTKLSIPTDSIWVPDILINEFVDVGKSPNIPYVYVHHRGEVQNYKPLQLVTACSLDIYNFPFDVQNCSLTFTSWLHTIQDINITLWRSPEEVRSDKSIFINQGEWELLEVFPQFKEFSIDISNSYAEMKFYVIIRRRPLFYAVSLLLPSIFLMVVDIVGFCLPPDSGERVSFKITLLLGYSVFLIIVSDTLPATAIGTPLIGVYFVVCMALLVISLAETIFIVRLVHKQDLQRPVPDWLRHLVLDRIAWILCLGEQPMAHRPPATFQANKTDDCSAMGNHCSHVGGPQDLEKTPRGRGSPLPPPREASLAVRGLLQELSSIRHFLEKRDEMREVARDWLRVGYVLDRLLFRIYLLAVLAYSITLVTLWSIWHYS
Description: Using a membrane fraction prepared from rat N1E-115 cells in accordance with the procedure of Lummis et al. (European Journal of Pharmacology, 189, 223-227, 1990), effects of the inventive compounds to inhibit binding of [^3 H]-GR65630 which was radioligand 5-HT3 antagonist to 5-HT3 receptor were examined, with the results shown in Table 1.

[3] = system: cisplatin-treated dogs; assay: Antiemetic effect in cisplatin-treated dogs; type: in vivo; conditions: 0.1 × 2 mg/kg i.v., 30 minutes before and 2 hours after cisplatin 3 mg/kg i.v.; observed over 6 hours; control 13.5
Experimental: Each of test dogs (2 animals per group) after 16 hours of fasting was fed with 200 g of a solid food, and cisplatin was administered to the animal 30 minutes thereafter by intravenous injection with a dose of 3 mg/kg. The test compound was dissolved in distilled water for injection and was administered by intravenous injection 30 minutes before and 2 hours after the cisplatin administration, and frequency and duration of emesis were observed over 6 hours.

[4] = 10^-7 M, read-out: Binding inhibitory ratio of [^3 H]-GR65630 at 10^-7 M
[5] = read-out: Binding inhibitory ratio of [^3 H]-GR65630 at 10^-7 M, 10^-7 M

| SMILES | inhibition at 0.1 µM [2, 4] [%] | other results |
| --- | --- | --- |
| CN1CCN(c2nc3ccccc3o2)CC1 [Example 1, 2-(4-Methyl-1-piperazinyl)benzoxazole] | 89.4 | Inhibitory ratio (bradycardia induced by 5-HT) ([1]; 3 mg/kg i.p.): 76% |
| C[N+]1(C)CCN(c2nc3ccccc3o2)CC1 [Example 2, 1,1-Dimethyl-4-(benzoxazol-2-yl)piperazinium iodide] |  | inhibition at 0.1 µM [2, 5]: 45.5% |
| C=CC[N+]1(C)CCN(c2nc3ccccc3o2)CC1.[I-] [Example 3, 1-Allyl-1-methyl-4-(benzoxazol-2-yl)piperazinium iodide] | 52.8 | Inhibitory ratio (bradycardia induced by 5-HT) ([1]; 0.3 mg/kg i.p.): 82%; Frequency of emesis [3]: 0 times |
| C=CC[N+]1(C)CCN(c2nc3ccccc3o2)CC1 [Example 4, 1-Allyl-1-methyl-4-(benzoxazol-2-yl)piperazinium chloride] |  | inhibition at 0.1 µM [2, 5]: 48% |
| C[N+]1(CCO)CCN(c2nc3ccccc3o2)CC1.[I-] [Example 5, 1-(2-Hydroxyethyl)-1-methyl-4-(benzoxazol-2-yl)piperazinium iodide] | 78 | Inhibitory ratio (bradycardia induced by 5-HT) ([1]; 0.3 mg/kg i.p.): 61% |
| CN1CCCN(c2nc3ccccc3o2)CC1 [Example 13, 2-(4-Methyl-1-homopiperazinyl)benzoxazole] | 97.3 |  |
| C[N+]1(C)CCCN(c2nc3ccccc3o2)CC1 [Example 14, 1,1-Dimethyl-4-(benzoxazol-2-yl)homopiperazinium iodide] | 44.4 |  |
| C[N+]1(CCO)CCCN(c2nc3ccccc3o2)CC1 (centres unmarked) [Example 16, 1-(2-Hydroxyethyl)-1-methyl-4-(benzoxazol-2-yl)homo-piperazinium iodide] | 46 |  |
| OCCN1CCCN(c2nc3ccccc3o2)CC1 [Example 19, 2-[4-(2-Hydroxyethyl)-1-homopiperazinyl]benzoxazole] | 54.3 |  |
| C=CC[N+]1(C)CCN(c2nc3ccc(O)cc3o2)CC1 [Example 22, 1-Allyl-1-1-methyl-4-(6-hydroxybenzoxazol-2-yl)piperazinium iodide] | 51.6 |  |
